This note sets out measurements from patent US4704399A, “1,3-dioxan-4-ylalkenoic acids” (Imperial Chemical Industries PLC, priority 1983, dated 1987).

Assay [1] has as its system bronchoconstriction induced by TXA2 mimetic agent U46619. As to the kind of experiment: bronchoconstriction test, Konzett-Rossler guinea-pig model, test (c). The note with it: some 3 hours following an oral dose of 5mg/kg, U46619 i.v. 1-1.5 μg/kg. Format: in vivo. The protocol: (c) a bronchoconstriction test involving measuring the inhibition by a test compound of the bronchoconstriction induced in the Konzett-Rossler guinea-pig model (as modified by Collier and James, Brit. J. Pharmacol., 1967, 30, 283-307) by intravenous administration of the TXA2 mimetic agent, U46619 at 1-1.5 μg/kg.

In assay [2] the test system is rabbit aortal strip, agonist TXA2 mimetic agent U46619. As to the kind of experiment: rabbit aortal strip model, test (a). Further details: species or system isolated tissue. The text has this:
(a) The rabbit aortal strip model devised by Piper and Vane (Nature, 1969, 223, 29-35) using as agonist the TXA2 mimetic agent known as U46619 (R. L. Jones et alia in "Chemistry, Biochemistry and Pharmacological Activity of Prostanoids", eds. S. M. Roberts and F. Scheinmann, at p.211; Pergamon Press, 1979);

Assay [3] deals with hypertensive effect of TXA2 mimetic agent U46619. As to the kind of experiment: U46619-induced hypertensive effect in anaesthetised rats, test (d). Format: in vivo, rats (Alderley Park strain). How it is done: (d) Male rats (Alderley Park strain) are anaesthetised with sodium pentobarbital and blood pressure is monitored at the carotid artery. The TXA2 mimetic agent U46619 is administered intravenously via the jugular vein and an ED50 (dose necessary to produce 50% of the maximum hypertensive effect) is established (n=3). The ED50 for U46619 is approximately 5 μg/kg. A test compound is then administered either intravenously via the jugular vein or orally via a cannula directly into the stomach and the animal challenged with an ED50 dose of U46619, five minutes after dosing with test compound and then successively every ten minutes until the hypertensive effect of U46619 is no longer blocked.

As usually defined, the pA2 is a measure of antagonist potency on a negative log scale. A lower pA2 goes with a weaker antagonist. Regarding `CCC[C@H]1OC[C@H](c2ccccc2C)[C@@H](CCCCCCC(=O)O)O1` (relative stereo) [Example 12, 7-([2,4-cis,4,5-trans]-2-n-propyl-5-o-tolyl-1,3-dioxan-4-yl)heptanoic acid], the reduction of bronchoconstriction result in assay [1] is given as “significant reduction of bronchoconstriction”. The pA2 in assay [2] came out at 6.7. Moreover, the “inhibition of the hypertensive effect” value in assay [3] (test (d), 80-90 minutes following an oral dose of 50 mg./kg., challenge with ED50 dose of U46619) is reported as “complete inhibition of the hypertensive effect”.

Broadly, the ED50 is the midpoint of the dose-response relation. Take `CCCCC[C@H](O)/C=C/[C@@H]1[C@@H](C/C=C\CCCC(=O)O)[C@H]2CO[C@@H]1C2` [Example U46619, reference compound]: the ED50 in assay [3] (Rattus norvegicus, iv, intravenously via the jugular vein, anaesthetised male rats, n=3, read-out: ED50 (dose necessary to produce 50% of the maximum hypertensive effect)) is approximately 5 µg/kg.
